Measured values: patent US8614327B2 (Vertex Pharmaceuticals Incorporated, priority 2004, dated 2013)

Target: T1, ΔF508-CFTR (Homo sapiens, UniProt P13569, DEL508-508)
T1 construct: expressed in transfected cells
Experiment: Membrane potential optical (FRET/VIPR) assay, identification of potentiator compounds
Type: cell-based
Conditions: Table 3, assay not given; for % Activity: relative efficacy
Method in brief: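 Double-addition potentiator screen: compound delivered in gluconate-substituted Cl^--free medium, membrane potential followed via CC2-DMPE/DiSBAC2(3) FRET on VIPR. Cells were ΔF508-CFTR-expressing NIH3T3 mouse fibroblasts, held 2 h at 37° C. then 24 h at 27° C. before assay.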

T1 sequence (P13569 with tags, fused parts or gaps DEL508-508): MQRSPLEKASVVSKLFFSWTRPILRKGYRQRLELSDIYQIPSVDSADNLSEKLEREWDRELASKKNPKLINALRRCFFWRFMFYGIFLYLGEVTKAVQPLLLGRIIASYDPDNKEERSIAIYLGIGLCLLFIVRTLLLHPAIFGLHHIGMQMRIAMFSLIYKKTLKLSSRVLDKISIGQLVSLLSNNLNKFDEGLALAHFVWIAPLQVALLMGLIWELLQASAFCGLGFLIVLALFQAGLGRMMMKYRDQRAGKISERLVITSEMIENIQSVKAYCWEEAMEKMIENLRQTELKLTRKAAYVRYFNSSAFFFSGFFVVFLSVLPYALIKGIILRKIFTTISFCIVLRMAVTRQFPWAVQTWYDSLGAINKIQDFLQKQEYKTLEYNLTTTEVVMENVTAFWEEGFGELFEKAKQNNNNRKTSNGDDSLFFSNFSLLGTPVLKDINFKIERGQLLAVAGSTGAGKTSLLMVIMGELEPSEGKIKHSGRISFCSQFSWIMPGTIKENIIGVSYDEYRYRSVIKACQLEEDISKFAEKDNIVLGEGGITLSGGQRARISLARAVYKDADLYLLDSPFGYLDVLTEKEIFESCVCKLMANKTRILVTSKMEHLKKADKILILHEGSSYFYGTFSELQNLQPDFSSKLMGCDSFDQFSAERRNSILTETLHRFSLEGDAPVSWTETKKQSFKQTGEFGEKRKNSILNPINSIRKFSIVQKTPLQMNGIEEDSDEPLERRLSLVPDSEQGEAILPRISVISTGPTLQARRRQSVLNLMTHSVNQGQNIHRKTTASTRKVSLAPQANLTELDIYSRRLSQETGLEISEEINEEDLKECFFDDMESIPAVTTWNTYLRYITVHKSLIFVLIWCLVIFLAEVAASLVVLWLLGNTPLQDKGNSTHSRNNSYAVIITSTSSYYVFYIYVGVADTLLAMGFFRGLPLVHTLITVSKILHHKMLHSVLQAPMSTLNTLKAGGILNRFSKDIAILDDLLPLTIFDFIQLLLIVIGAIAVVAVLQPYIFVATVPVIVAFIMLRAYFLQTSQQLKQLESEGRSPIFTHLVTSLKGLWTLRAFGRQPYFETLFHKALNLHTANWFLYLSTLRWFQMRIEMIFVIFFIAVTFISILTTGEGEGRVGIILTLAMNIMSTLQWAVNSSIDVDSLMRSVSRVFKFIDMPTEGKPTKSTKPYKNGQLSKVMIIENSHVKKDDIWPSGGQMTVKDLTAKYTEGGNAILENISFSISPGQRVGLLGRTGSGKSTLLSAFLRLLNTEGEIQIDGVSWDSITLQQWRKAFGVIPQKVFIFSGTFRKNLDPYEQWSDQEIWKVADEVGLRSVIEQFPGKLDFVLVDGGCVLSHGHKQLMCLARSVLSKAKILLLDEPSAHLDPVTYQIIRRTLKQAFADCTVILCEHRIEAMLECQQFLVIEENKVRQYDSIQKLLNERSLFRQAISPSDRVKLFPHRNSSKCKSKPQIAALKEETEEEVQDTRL

SMILES | % Activity | EC50 [µM]
CS(=O)(=O)Nc1cccc(NC(=O)c2c[nH]c3ccccc3c2=O)c1 [Compound 214, N-(3-methylsulfonylaminophenyl)-4-oxo-1H-quinoline-3-carboxamide] | ++ (between 25% to 100%) | –
O=C(Nc1ccccc1)c1c[nH]c2ccccc2c1=O [Compound 215, 4-Oxo-N-phenyl-1H-quinoline-3-carboxamide] | ++ (between 25% to 100%) | < 10
O=C(Nc1nc2ccccc2[nH]1)c1c[nH]c2ccccc2c1=O [Compound 216, N-(3H-benzoimidazol-2-yl)-4-oxo-1H-quinoline-3-carboxamide] | + (<25%) | 25 to 60
O=C(Nc1ccc2[nH]ncc2c1)c1c[nH]c2ccccc2c1=O [Compound 217, N-(1H-indazol-5-yl)-4-oxo-1H-quinoline-3-carboxamide] | ++ (between 25% to 100%) | 10 to 25
CC1(c2cc(F)c(NC(=O)c3c[nH]c4ccc(F)cc4c3=O)cc2O)CCCCC1 [Compound 218, 6-fluoro-N-[2-fluoro-5-hydroxy-4-(1-methylcyclohexyl)-phenyl]-4-oxo-1H-quinoline-3-carboxamide] | ++ (between 25% to 100%) | < 10
O=C(Nc1cnccn1)c1c[nH]c2ccccc2c1=O [Compound 219, 4-oxo-N-pyrazin-2-yl-1H-quinoline-3-carboxamide] | + (<25%) | 25 to 60
CC(C)(C)c1cc(C(C)(C)C)c(NC(=O)c2c[nH]c3ccccc3c2=O)c(O)c1O [Compound 220, N-(2,3-dihydroxy-4,6-ditert-butyl-phenyl)-4-oxo-1H-quinoline-3-carboxamide] | ++ (between 25% to 100%) | < 10
CCCc1ccc(NC(=O)c2c[nH]c3ccccc3c2=O)cc1NC(=O)OC [Compound 221, [5-[(4-oxo-1H-quinolin-3-yl)carbonylamino]-2-propyl-phenyl]aminoformic acid methyl ester] | ++ (between 25% to 100%) | < 10
N#Cc1c(Cl)cccc1NC(=O)c1c[nH]c2ccccc2c1=O [Compound 222, N-(3-chloro-2-cyano-phenyl)-4-oxo-1H-quinoline-3-carboxamide] | ++ (between 25% to 100%) | 10 to 25
CSc1ccc(-c2ccccc2NC(=O)c2c[nH]c3ccccc3c2=O)cc1 [Compound 223, N-[2-(4-methylsulfanylphenyl)phenyl]-4-oxo-1H-quinoline-3-carboxamide] | ++ (between 25% to 100%) | < 10
O=C(Nc1ccc(-c2ccccc2CNC(=O)C(F)(F)F)cc1)c1c[nH]c2ccccc2c1=O [Compound 224, 4-oxo-N-[4-[2-[(2,2,2-trifluoroacetyl)aminomethyl]phenyl]phenyl]-1H-quinoline-3-carboxamide] | ++ (between 25% to 100%) | < 10
CCOC(=O)Nc1cc(NC(=O)c2c[nH]c3ccccc3c2=O)ccc1C(C)C [Compound 225, [2-isopropyl-5-[(4-oxo-1H-quinolin-3-yl)carbonylamino]phenyl]aminoformic acid ethyl ester] | ++ (between 25% to 100%) | < 10
CCCc1ccc(NC(=O)c2c[nH]c3ccccc3c2=O)cc1 [Compound 226, 4-oxo-N-(4-propylphenyl)-1H-quinoline-3-carboxamide] | ++ (between 25% to 100%) | –
O=C(Nc1ccccc1-c1nc2ccccc2[nH]1)c1c[nH]c2ccccc2c1=O [Compound 227, N-[2-(3H-benzoimidazol-2-yl)phenyl]-4-oxo-1H-quinoline-3-carboxamide] | + (<25%) | 25 to 60
O=C(Nc1ccccc1C(O)c1ccccc1)c1c[nH]c2ccccc2c1=O (centres unmarked) [Compound 228, N-[2-(hydroxy-phenyl-methyl)phenyl]-4-oxo-1H-quinoline-3-carboxamide] | ++ (between 25% to 100%) | < 10
CSc1ccccc1NC(=O)c1c[nH]c2ccccc2c1=O [Compound 229, N-(2-methylsulfanylphenyl)-4-oxo-1H-quinoline-3-carboxamide] | ++ (between 25% to 100%) | < 10
Cc1cc2cc(NC(=O)c3c[nH]c4ccccc4c3=O)ccc2[nH]1 [Compound 230, N-(2-methyl-1H-indol-5-yl)-4-oxo-1H-quinoline-3-carboxamide] | ++ (between 25% to 100%) | 10 to 25
COC(=O)c1cccc(-c2cc(C(C)(C)C)c(O)cc2NC(=O)c2c[nH]c3ccccc3c2=O)c1 [Compound 231, 3-[4-hydroxy-2-[(4-oxo-1H-quinolin-3-yl)carbonylamino]-5-tert-butyl-phenyl]benzoic acid methyl ester] | ++ (between 25% to 100%) | < 10
CC(=O)N1CCc2ccc(NC(=O)c3c[nH]c4ccccc4c3=O)cc21 [Compound 233, N-(1-acetylindolin-6-yl)-4-oxo-1H-quinoline-3-carboxamide] | + (<25%) | 10 to 25

SMILES | % Activity | EC50 [µM]
O=C(Nc1cc2[nH]ccc2cc1C(F)(F)F)c1c[nH]c2ccccc2c1=O [Compound 234, 4-oxo-N-[5-(trifluoromethyl)-1H-indol-6-yl]-1H-quinoline-3-carboxamide] | ++ (between 25% to 100%) | < 10
CC(C)c1ccc(NC(=O)c2c[nH]c3ccccc3c2=O)cn1 [Compound 235, N-(6-isopropyl-3-pyridyl)-4-oxo-1H-quinoline-3-carboxamide] | ++ (between 25% to 100%) | < 10
O=C(Nc1ccc(C(F)(F)F)cc1)c1c[nH]c2ccccc2c1=O [Compound 236, 4-oxo-N-[4-(trifluoromethyl)phenyl]-1H-quinoline-3-carboxamide] | ++ (between 25% to 100%) | < 10
COc1ccccc1-c1cc2cc[nH]c2cc1NC(=O)c1c[nH]c2ccccc2c1=O [Compound 237, N-[5-(2-methoxyphenyl)-1H-indol-6-yl]-4-oxo-1H-quinoline-3-carboxamide] | ++ (between 25% to 100%) | –
CC(C)(C)OC(=O)N1CCC2(CCNc3cc(NC(=O)c4c[nH]c5ccccc5c4=O)ccc32)CC1 [Compound 238, 7′-[(4-oxo-1H-quinolin-3-ylcarbonyl)amino]-spiro[piperidine-4,4′(1′H)-quinoline], 2′,3′-dihydro-carboxylic acid tert-butyl ester] | ++ (between 25% to 100%) | < 10
COC(=O)Nc1ccc(C(C)C)c(NC(=O)c2c[nH]c3ccccc3c2=O)c1 [Compound 239, [4-isopropyl-3-[(4-oxo-1H-quinolin-3-yl)carbonylamino]phenyl]aminoformic acid methyl ester] | ++ (between 25% to 100%) | < 10
O=C(Nc1ccccc1OCc1ccccc1)c1c[nH]c2ccccc2c1=O [Compound 240, N-(2-benzyloxyphenyl)-4-oxo-1H-quinoline-3-carboxamide] | ++ (between 25% to 100%) | < 10
O=C(Nc1cccc2cccnc12)c1c[nH]c2ccccc2c1=O [Compound 241, 4-oxo-N-(8-quinolyl)-1H-quinoline-3-carboxamide] | ++ (between 25% to 100%) | 10 to 25
Nc1cc(NC(=O)c2c[nH]c3ccccc3c2=O)c(Cl)cc1Cl [Compound 242, N-(5-amino-2,4-dichloro-phenyl)-4-oxo-1H-quinoline-3-carboxamide] | ++ (between 25% to 100%) | < 10
O=C(Nc1ccc2c3c([nH]c2c1)CCCC3)c1c[nH]c2ccccc2c1=O [Compound 244, 4-oxo-N-(6,7,8,9-tetrahydro-5H-carbazol-2-yl)-1H-quinoline-3-carboxamide] | ++ (between 25% to 100%) | < 10
O=C(Nc1ccccc1Oc1ccc(Cl)cc1Cl)c1c[nH]c2ccccc2c1=O [Compound 245, N-[2-(2,4-dichlorophenoxy)phenyl]-4-oxo-1H-quinoline-3-carboxamide] | ++ (between 25% to 100%) | < 10
Cc1ccc(NC(=O)c2c[nH]c3ccccc3c2=O)cc1C [Compound 246, N-(3,4-dimethylphenyl)-4-oxo-1H-quinoline-3-carboxamide] | ++ (between 25% to 100%) | < 10
O=C(Nc1ccccc1-c1ccccc1Oc1ccccc1)c1c[nH]c2ccccc2c1=O [Compound 247, 4-oxo-N-[2-(2-phenoxyphenyl)phenyl]-1H-quinoline-3-carboxamide] | ++ (between 25% to 100%) | < 10
CC(=O)Nc1cc(NC(=O)c2c[nH]c3ccccc3c2=O)ccc1C [Compound 248, N-(3-Acetylamino-4-methyl-phenyl)-4-oxo-1H-quinoline-3-carboxamide] | ++ (between 25% to 100%) | 10 to 25
CCc1ccc(NC(=O)OC)cc1NC(=O)c1c[nH]c2ccccc2c1=O [Compound 249, [4-ethyl-3-[(4-oxo-1H-quinolin-3-yl)carbonylamino]phenyl]aminoformic acid methyl ester] | ++ (between 25% to 100%) | 10 to 25
COc1ccc(NC(C)=O)cc1NC(=O)c1c[nH]c2ccccc2c1=O [Compound 250, N-(5-acetylamino-2-methoxy-phenyl)-4-oxo-1H-quinoline-3-carboxamide] | + (<25%) | 25 to 60
CC(C)COC(=O)NCC(C)(C)c1ccc(NC(=O)c2c[nH]c3ccccc3c2=O)cc1 [Compound 251, [2-methyl-2-[4-[(4-oxo-1H-quinolin-3-yl)carbonylamino]phenyl]-propyl]aminoformic acid isobutyl ester] | ++ (between 25% to 100%) | < 10
O=C(c1ccccc1)c1ccccc1NC(=O)c1c[nH]c2ccccc2c1=O [Compound 252, N-(2-benzoylphenyl)-4-oxo-1H-quinoline-3-carboxamide] | ++ (between 25% to 100%) | 10 to 25
